Test results as given in patent US8911715B2, “L-menthyl-N-(2-hydroxyphenyl)carbamate” (Symrise AG, priority 2008, dated 2014).
Values after ≈ are worked out from the molar mass of the structure shown.

What was measured:
[1] = ABTS assay, cell-free in vitro test of antioxidant capacity; type: biochemical; parameters: Mean antioxidant capacity (AOX): unit not given here; details: for IC50: ABTS decoloration at 734 nm, read-out: IC50 (antioxidant concentration in which 50% of the cationic radicals are reduced); for IC50 / Mean antioxidant capacity (AOX): mean of two independent tests
Source text: In order to check to what extent L-menthyl-N-(2-hydroxyphenyl)carbamate also has antioxidant potential, the substance was investigated with the aid of the ABTS assay.
The ABTS assay is a cell-free in vitro test for evaluating the antioxidant capacity (literature: Re R, Pellegrini N, Proteggente A, Pannala A, Yang M, Rice-Evans C. 1999. “Antioxidant activity applying an improved ABTS radical cation decolorization assay”; Free Radic. Bio. Med. 26: 1231-7). The assay uses the inherent color of a solution produced with the cationic radical 2,2′-azinobis(3-ethylbenzothiazoline 6-sulfonic acid) (ABTS+) and potassium persulfate, which solution is decolored by the addition of antioxidants (reduction of the cationic radical). This decoloration can be measured photometrically at 734 nm.
The test is carried out in 96-well microtiter plates. The antioxidant capacity is expressed in IC50 values (antioxidant concentration in which 50% of the cationic radicals are reduced). All the ABTS test results result from two independent tests and are shown as mean values with associated mean value deviation.

[2] = test system: Aspergillus niger; experiment: MIC determination, series dilution test (microtiter plate) / agar dilution method; type: cell-based
Protocol: (§1) The evidence of the antimicrobial action against body perspiration odor bacteria of the substances synthesized according to the examples was implemented with the aid of the agar dilution method according to DIN 58 940/ICS and DIN 58 944/ICS. Petri dishes of 5.5 cm in diameter were filled with 8.7 ml freshly produced Mueller-Hinton-agar or Wilkins-Chalgren-agar bouillon kept liquid at 50° C., supplemented with 10 g agar-agar/liter) to which the various concentrations of the thinned samples were added in 3.3% by volume=0.3 ml.
2.6 ml of the 3.3% samples were diluted with ethanol (96%). […]
(§2) All the test germ suspensions were diluted again with sterile bouillon 1:10 and the germ count thereof determined in the surface method per spiralometer (results: see Table 1).
(§3) The lowest active ingredient concentration was regarded as the MIC (minimal inhibition concentration), at which no growth is macroscopically present. Minimal, hardly visible growth or a few small individual colonies were evaluated as inhibition.
The minimum inhibition concentration (MIC) of the compound according to the invention, was determined against various cosmetically relevant germs in the series dilution test (H. Brandis, G. Pulverer: Lehrbuch der Medizinischen Mikrobiologie, 6th revised edition, Gustav Fischer Verlag Stuttgart, 1988; page 200 et seq.). […]

[3] = test system: Staphylococcus aureus; experiment: as above; type: cell-based; details: ATCC6538; Staphylococcus aureus ATCC 6538; 16 hours incubation, clouding at 620 nm
Protocol: as §1
(§4) 2.6 ml of the 3.3% samples were diluted with ethanol (96%). By continuous 2:1 dilution with ethanol (96%) the further test concentrations of the respective series of dilution, which were placed in the form of geometric rows, were produced.
(§5) By further dilution with the test agar (0.3 ml sample or corresponding dilutions+8.7 ml agar), 30 times lower end concentrations were achieved (corresponds to a starting concentration of 1,100 ppm in each case). The concentrations disclosed below relate to the pure substance and are converted into ppm. […]
as §2, §3
(§6) The minimum inhibition concentration (MIC) of the compound according to the invention, was determined against various cosmetically relevant germs in the series dilution test (H. Brandis, G. Pulverer: Lehrbuch der Medizinischen Mikrobiologie, 6th revised edition, Gustav Fischer Verlag Stuttgart, 1988; page 200 et seq.). The test was transferred to the microtiter plate format and the concentration was determined as the MIC value, in which after 16 hours of incubation, at the wavelength of 620 nm, no significant rise in the clouding was observed relative to the controls.

[4] = test system: Corynebacterium xerosis; experiment: as above; type: cell-based
Protocol: as §1, §4, §5, §2, §3, §6

IC50 [1] | MIC ([2]; ATCC16404, Aspergillus niger ATCC 16404, 16 hours incubation, clouding at 620 nm) | MIC [3] | MIC ([4]; ATCC7711, Corynebacterium xerosis ATCC 7711, 16 hours incubation, clouding at 620 nm) | SMILES | antioxidant capacity compared with reference alpha-tocopherol (in words) ([1]; ABTS investigations) | Mean antioxidant capacity (AOX) ([1]; concentration 0.001 mM) | Mean antioxidant capacity (AOX) ([1]; concentration 0.0025 mM) | Mean antioxidant capacity (AOX) ([1]; concentration 0.005 mM) | Mean antioxidant capacity (AOX) ([1]; concentration 0.025 mM) | Mean antioxidant capacity (AOX) ([1]; concentration 0.05 mM) | activity relative to mould fungi (in words) ([2]; mould fungi such as Aspergillus niger) | inhibition of the growth (in words) ([4]; gram-positive bacteria such as corynebacterium xerosis, very small concentrations)
19 µM | > 1000 µg/mL | 8 µg/mL (≈ 27.5 µM) | 8 µg/mL (≈ 27.5 µM) | CC(C)[C@@H]1CC[C@@H](C)C[C@H]1OC(=O)Nc1ccccc1O [L-menthyl-N-(2-hydroxyphenyl)carbamate] | comparable with the antioxidant capacity of the reference substance alpha-tocopherol | 3.58 | 8.84 | 17.50 | 63.15 | 96.56 | inactive | clear inhibition of the growth
25 µM |  |  |  | Cc1c(C)c2c(c(C)c1O)CC[C@@](C)(CCC[C@H](C)CCC[C@H](C)CCCC(C)C)O2 [alpha-tocopherol, reference compound] |  | 0.56 | 4.16 | 10.83 | 51.38 | 94.88 |  | 
